Measurements from patent US20240368165A1, “SOLID STATE FORMS OF HYDROCHLORIDE SALT OF ((1S,2S,4R)-4-{4-[(1S)-2,3-DIHYDRO-1H-INDEN-1-YLAMINO]-7H-PYRROLO[2,3-D]PYRIMIDIN-7-YL}-2-HYDROXYCYCLOPENTYL)METHYL SULFAMATE” (Takeda Pharmaceutical Company Limited, priority 2020, published 2024).

Columns and labels:
Assay type in all cases: physicochemical
[1] = Solid-state stability under accelerated storage, purity via HPLC; conditions: for stability with respect to change in TAK-924 chemical purity (% Area) and physical form / overall chemical and physical stability: accelerated storage; for stability with respect to change in TAK-924 chemical purity (% Area) and physical form: compared to Form 1; for overall chemical and physical stability: overall stability data
Experimental: (§1) Solid-state stability studies of Forms 1, 9, and 12 were performed to assess the relative stability of new anhydrous Forms 9 and 12. Solid samples of each pattern were stored in open and closed glass vials at accelerated conditions (40° C./75% RH open and closed, and 60° C. closed). […]

[2] = Solid-state stability under accelerated storage, polymorphic form via XRPD; conditions: T-6 Days, hydrochloride
Experimental: as §1

Solubility of solid form = conditions: pH 2.33; pH of 2.33
[3] = 40° C./75% RH Closed, T-3.5 Weeks, hydrochloride
[4] = 40° C./75% RH Closed, T-6 Days, hydrochloride
[5] = 40° C./75% RH Open, T-3.5 Weeks, hydrochloride
[6] = 40° C./75% RH Open, T-6 Days, hydrochloride
[7] = 60° C. (closed), T-3.5 Weeks, hydrochloride
[8] = 60° C. (closed), T-6 Days, hydrochloride

HPLC Purity (% Area TAK-924) [1, 3] [% Area]	HPLC Purity change from T-0 [1, 3]	HPLC Purity (% Area TAK-924) [1, 4] [% Area]	HPLC Purity change from T-0 [1, 4]	HPLC Purity (% Area TAK-924) [1, 5] [% Area]	HPLC Purity change from T-0 [1, 5]	HPLC Purity (% Area TAK-924) [1, 6] [% Area]	HPLC Purity change from T-0 [1, 6]	HPLC Purity (% Area TAK-924) [1, 7] [% Area]	HPLC Purity change from T-0 [1, 7]	HPLC Purity (% Area TAK-924) [1, 8] [% Area]	HPLC Purity change from T-0 [1, 8]	HPLC Purity (% Area TAK-924), Initial (T-0) ([1]; Initial (T-0), before accelerated storage, hydrochloride) [% Area]	XRPD Results (polymorphic form after accelerated storage) ([2]; 40° C./75% RH Closed)	XRPD Results (polymorphic form after accelerated storage) ([2]; 60° C. (closed))	solubility (Solubility of solid form) [µg/mL]	stability with respect to change in TAK-924 chemical purity (% Area) and physical form [1]	overall chemical and physical stability [1]	Structure (SMILES)
98.1	(−0.9%)	98.6	(−0.4%)	98.8	(−0.2%)	98.9	(−0.1%)	86.6	(−13.4%)	94.4	(−5.6%)	99.0	Form 1	Form 1				Cl.NS(=O)(=O)OC[C@@H]1C[C@@H](n2ccc3c(N[C@H]4CCc5ccccc54)ncnc32)C[C@@H]1O [Compound Form 1, ((1S,2S,4R)-4-{4-[(1S)-2,3-dihydro-1H-inden-1-ylamino]-7H-pyrrolo[2,3-d]pyrimidin-7-yl}-2-hydroxycyclopentyl)methyl sulfamate hydrochloride]
															~7800	stable when compared to Form 1	chemically and physically stable	Cl.NS(=O)(=O)OC[C@@H]1C[C@@H](n2ccc3c(N[C@H]4CCc5ccccc54)ncnc32)C[C@@H]1O [Compound Form 9, ((1S,2S,4R)-4-{4-[(1S)-2,3-dihydro-1H-inden-1-ylamino]-7H-pyrrolo[2,3-d]pyrimidin-7-yl}-2-hydroxycyclopentyl)methyl sulfamate hydrochloride]
																stable when compared to Form 1	chemically and physically stable	Cl.NS(=O)(=O)OC[C@@H]1C[C@@H](n2ccc3c(N[C@H]4CCc5ccccc54)ncnc32)C[C@@H]1O [Compound Form 12, ((1S,2S,4R)-4-{4-[(1S)-2,3-dihydro-1H-inden-1-ylamino]-7H-pyrrolo[2,3-d]pyrimidin-7-yl}-2-hydroxycyclopentyl)methyl sulfamate hydrochloride]
